Patent publication US10681909B2, “Herbicidal triazoles” (FMC Corporation, priority 2014, dated 2020)

How the values were obtained:
[1] = test system: buckwheat, wild; assay: Test D preemergence; format: in vivo, Polygonum convolvulus; conditions: for Plant response rating (0 to 100), Buckwheat, Wild: 16 g ai/ha, 0 is no effect, 100 is complete control; for Plant response rating: Buckwheat, Wild: scale 0 to 100
Text: (§1) Seeds of plant species selected from bluegrass (annual bluegrass, Poa annua), blackgrass (Alopecurus myosuroides), canarygrass (Phalaris minor), chickweed (common chickweed, Stellaria media), galium (catchweed bedstraw, Galium aparine), bromegrass, down (downy bromegrass, Bromus tectorum), Russian thistle (Salsola kali), field poppy (Papaver rhoeas), field violet (Viola arvensis), foxtail, green (green foxtail, Setaria viridis), deadnettle (henbit deadnettle, Lamium amplexicaule), ryegrass, Ital. (Italian ryegrass, Lolium multiflorum), kochia (Kochia scoparia), lambsquarters (Chenopodium album), oilseed rape (Brassica napus), pigweed (Amaranthus retroflexus), chamomile (scentless chamomile, Matricaria inodora), speedwell (bird's-eye speedwell, Veronica persica), barley, spring (spring barley, Hordeum vulgare), wheat, spring (spring wheat, Triticum aestivum), buckwheat, wild (wild buckwheat, Polygonum convolvulus), wild mustard (Sinapis arvensis), oat, wild (wild oat, Avena fatua), radish, wild (wild radish, Raphanus raphanistrum), […]), barley, winter (winter barley, Hordeum vulgare), and wheat, winter (winter wheat, Triticum aestivum) were planted into a silt loam soil and treated preemergence with test chemicals formulated in a non-phytotoxic solvent mixture which included a surfactant. At the same time, these species were planted in pots containing Sunshine Redi-Earth® planting medium comprising spaghnum peat moss, vermiculite, starter nutrients and dolomitic limestone and treated with postemergence applications of the test chemicals formulated in the same manner. Plants ranged in height from 2 to 18 cm (1- to 4-leaf stage). Treated plants and controls were maintained in a controlled growth environment for 14 to 21 d after which time all species were compared to controls and visually evaluated. […] A dash (-) response means no test result.

[2] = test system: radish, wild; assay: Test D preemergence; format: in vivo, Raphanus raphanistrum; conditions: for Plant response rating (0 to 100), Radish, Wild: 16 g ai/ha, 0 is no effect, 100 is complete control; for Plant response rating: Radish, Wild: scale 0 to 100
Text: as §1

[3] = test system: kochia; assay: Test A preemergence; format: in vivo, Kochia scoparia; conditions: 0 to 100 scale (0 no effect, 100 complete control)
In short: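 Seeds sown in loam soil–sand blend received a directed preemergence soil spray of test chemical in non-phytotoxic solvent with surfactant; postemergence plants, 2 to 10 cm at one- to two-leaf stage, were sprayed with the same formulation. Injury visually rated versus untreated controls after ~10 d in greenhouse, 0–100 scale.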

[4] = test system: soybean; assay: Test C preemergence; format: in vivo, Glycine max; conditions: for Soybean plant response rating (0 to 100): Preemergence, visual rating after 13 to 15 d; for Plant response rating (scale of 0 to 100 where 0 is no effect and 100 is complete control): Soybean, preemergence, 250 g ai/ha
Text: (§2) Seeds of plant species selected from blackgrass (Alopecurus myosuroides), ryegrass, Italian (Italian ryegrass, Lolium multiflorum), wheat (winter wheat, Triticum aestivum), galium (catchweed bedstraw, Galium aparine), corn (Zea mays), crabgrass, large (large crabgrass, Digitaria sanguinalis), foxtail, giant, (giant foxtail, Setaria faberii), johnsongrass (Sorghum halepense), lambsquarters (Chenopodium album), morningglory (Ipomoea coccinea), nutsedge, yellow (yellow nutsedge, Cyperus esculentus), pigweed (Amaranthus retroflexus), ragweed (common ragweed, Ambrosia elatior), soybean (Glycine max), barnyardgrass (Echinochloa crus-galli), oilseed rape (Brassica napus), waterhemp (common waterhemp, Amaranthus rudis), and velvetleaf (Abutilon theophrasti) were planted into a blend of loam soil and sand and treated preemergence with test chemicals formulated in a non-phytotoxic solvent mixture which included a surfactant. At the same time, plants selected from these crop and weed species and also chickweed (common chickweed, Stellaria media), oat, wild (wild oat, Avena fatua), and kochia (Kochia scoparia), were planted in pots containing Sunshine Redi-Earth® planting medium comprising spaghnum peat moss, vermiculite, starter nutrients and dolomitic limestone and treated with postemergence applications of test chemicals formulated in the same manner. Plants ranged in height from 2 to 18 cm (1- to 4-leaf stage) for postemergence treatments. […] A dash (-) response means no test result.

[5] = test system: field violet; assay: Test D postemergence; format: in vivo, Viola arvensis; conditions: scale 0 to 100
Text: as §1

[6] = test system: field poppy; assay: Test D postemergence; format: in vivo, Papaver rhoeas; conditions: scale 0 to 100
Text: as §1

[7] = test system: crabgrass, large; assay: Test C preemergence; format: in vivo, Digitaria sanguinalis; conditions: for Plant response rating (scale of 0 to 100 where 0 is no effect and 100 is complete control): Crabgrass, Large, preemergence; for Crabgrass, Large plant response rating (0 to 100): Preemergence, visual rating after 13 to 15 d
Text: as §2

[8] = test system: corn; assay: Test A preemergence; format: in vivo, Zea mays; conditions: Zea mays, pre-emergence, 240 h, 0 to 100 scale (0 no effect, 100 complete control); for Corn plant response rating (crop injury, 0 = no effect, 100 = complete kill) at 125 g/ha: 125 g ai/ha; for Corn plant response rating (crop injury, 0 = no effect, 100 = complete kill) at 500 g/ha: 500 g ai/ha, approx. 10 d
In short: (§3)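 For preemergence, seeds were sown in a loam soil-sand blend and given a directed soil spray of test chemical in a non-phytotoxic solvent mixture with surfactant. For postemergence, plants in pots of the same blend were sprayed with the same formulation at the one- to two-leaf stage, 2 to 10 cm tall.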

[9] = test system: crabgrass, large; assay: Test A preemergence; format: in vivo, Digitaria sanguinalis; conditions: Digitaria sanguinalis, pre-emergence, 240 h, 0 to 100 scale (0 no effect, 100 complete control), read-out: Plant response rating, Crabgrass, Large; for pest or weed control at 125 g/ha: 125 g ai/ha; for pest or weed control at 500 g/ha: 500 g ai/ha, approx. 10 d
In short: as §3

SMILES | Plant response rating (0 to 100), Buckwheat, Wild [1] | Plant response rating: Buckwheat, Wild ([1]; 31 g ai/ha) | Plant response rating: Buckwheat, Wild ([1]; 62 g ai/ha) | Plant response rating: Buckwheat, Wild ([1]; 125 g ai/ha) | Plant response rating: Radish, Wild ([2]; 62 g ai/ha) | Plant response rating: Radish, Wild ([2]; 125 g ai/ha) | Plant response rating, Kochia ([3]; 125 g ai/ha) | Soybean plant response rating (0 to 100) ([4]; 31 g ai/ha) | Soybean plant response rating (0 to 100) ([4]; 62 g ai/ha) | Plant response rating (scale of 0 to 100 where 0 is no effect and 100 is complete control) [4] | Plant response rating: Field Violet ([5]; 31 g ai/ha) | Plant response rating: Field Violet ([5]; 62 g ai/ha) | Plant response rating: Field Violet ([5]; 125 g ai/ha) | Plant response rating: Field Poppy ([6]; 31 g ai/ha) | Plant response rating: Field Poppy ([6]; 62 g ai/ha) | Plant response rating: Field Poppy ([6]; 125 g ai/ha) | Plant response rating (scale of 0 to 100 where 0 is no effect and 100 is complete control) ([7]; 125 g ai/ha) | Plant response rating (scale of 0 to 100 where 0 is no effect and 100 is complete control) ([7]; 250 g ai/ha) | Crabgrass, Large plant response rating (0 to 100) ([7]; 31 g ai/ha) | Crabgrass, Large plant response rating (0 to 100) ([7]; 62 g ai/ha) | further results
CCOc1nc(-c2ccccc2)nn1Cc1ccnc(C(F)(F)F)c1 [Compound 27] | 65 | 80 | 70 | 85 | 85 | 100 | 100 | 35 | 40 | 75 | 75 | 80 | 80 | 80 | 85 | 100 | 100 | 100 | 100 | 100 | Plant response rating (0 to 100), Radish, Wild [2]: 75; Plant response rating, Kochia ([3]; 500 g ai/ha, approx. 10 d): 100; Plant response rating: Field Violet ([5]; 16 g ai/ha): 70; Plant response rating: Field Poppy ([6]; 16 g ai/ha): 75
FC(F)(F)COc1nc(-c2ccccc2)nn1Cc1ccnc(C(F)(F)F)c1 [Compound 24] | 50 | 55 | 60 | 70 | 75 | 100 | 80 | 0 | 5 | 35 | 75 | 80 | 90 | 75 | 80 | 100 | 100 | 100 | 98 | 98 | Plant response rating (0 to 100), Radish, Wild [2]: 45; Plant response rating, Kochia ([3]; 500 g ai/ha, approx. 10 d): 90; Plant response rating: Field Violet ([5]; 16 g ai/ha): 70; Plant response rating: Field Poppy ([6]; 16 g ai/ha): 60
FC(F)(F)COc1nc(-c2ccc(Cl)cc2)nn1Cc1ccnc(C(F)(F)F)c1 [Compound 31] | 65 | 75 | 75 | 75 | 100 | 100 | 90 | 5 | 5 | 10 | 100 | 100 | 100 | 80 | 98 | 100 | 100 | 100 | 98 | 98 | Plant response rating, Kochia ([3]; 500 g ai/ha, approx. 10 d): 90; Plant response rating: Field Violet ([5]; 16 g ai/ha): 100; Plant response rating: Field Poppy ([6]; 16 g ai/ha): 75
CCc1nc(-c2ccc(C(F)(F)F)cc2)nn1Cc1ccnc(C(F)(F)F)c1 [Compound 1, 4-[[5-ethyl-3-[4-(trifluoromethyl)phenyl]-1H-1,2,4-triazol-1-yl]methyl]-2-(trifluoromethyl)pyridine] |  | 60 | 70 | 65 | 100 | 100 |  | 0 | 5 | 20 | 100 | 100 | 100 | 70 | 100 | 100 | 100 | 100 | 98 | 100 | Plant response rating: Buckwheat, Wild ([1]; 250 g ai/ha): 100; Corn plant response rating (crop injury, 0 = no effect, 100 = complete kill) at 125 g/ha [8]: 10%; Corn plant response rating (crop injury, 0 = no effect, 100 = complete kill) at 500 g/ha [8]: 20%; Plant response rating: Radish, Wild ([2]; 250 g ai/ha): 100; Plant response rating: Field Violet ([5]; 250 g ai/ha): 100; Plant response rating: Field Poppy ([6]; 250 g ai/ha): 100; pest or weed control at 125 g/ha [9]: 100%; pest or weed control at 500 g/ha [9]: 100%
CCOc1nc(-c2ccc(F)cc2)nn1Cc1ccnc(C(F)(F)F)c1 [Compound 8, 4-[[5-ethoxy-3-(4-fluorophenyl)-1H-1,2,4-triazol-1-yl]methyl]-2-(trifluoromethyl)pyridine] |  | 35 | 100 | 100 | 60 | 100 |  | 15 | 35 | 75 | 70 | 75 | 90 | 80 | 90 | 95 | 100 | 100 | 100 | 100 | Plant response rating: Buckwheat, Wild ([1]; 250 g ai/ha): 100; Corn plant response rating (crop injury, 0 = no effect, 100 = complete kill) at 125 g/ha [8]: 90%; Corn plant response rating (crop injury, 0 = no effect, 100 = complete kill) at 500 g/ha [8]: 100%; Plant response rating: Radish, Wild ([2]; 250 g ai/ha): 100; Plant response rating: Field Violet ([5]; 250 g ai/ha): 100; Plant response rating: Field Poppy ([6]; 250 g ai/ha): 100; pest or weed control at 125 g/ha [9]: 100%; pest or weed control at 500 g/ha [9]: 100%
